According to PubChem BioAssay AID624129 (Sanford-Burnham Center for Chemical Genomics, 2012):
Activity calls are given as the source filed them. The rule behind the calls is not given here.

What was measured:
Test in all cases: CXCR6 receptor antagonists, dose response, cell-based, beta-arrestin, DiscoveRx, APJ panel, uHTS hits (AID 624129)
[1] = molecular target: Apelin receptor (Homo sapiens) (UniProt P35414); conditions: CXCR6 beta-arrestin (DiscoveRx) antagonist cell assay, APJ
[2] = molecular target: Beta-galactosidase (Escherichia coli) (UniProt Q8VNN2); conditions: CXCR6 beta-arrestin (DiscoveRx) antagonist cell assay, b-galactosidase
[3] = molecular target: C-C chemokine receptor type 6 (Homo sapiens) (UniProt P51684); conditions: CXCR6 beta-arrestin (DiscoveRx) antagonist cell assay
[4] = molecular target: C-X-C chemokine receptor type 6 (Homo sapiens) (UniProt O00574); conditions: CXCR6 beta-arrestin (DiscoveRx) antagonist cell assay; for inhibition: CXCR6, run 1, dose range 2, at 80 µM (top of the series)
[5] = dose range 1, mean IC50 across replicates
[6] = CCR6, dose range 1, mean IC50 across replicates
[7] = CXCR6, dose range 1, mean IC50 across replicates

Chain of C-X-C chemokine receptor type 6 (Homo sapiens) (O00574 whole entry, looked up): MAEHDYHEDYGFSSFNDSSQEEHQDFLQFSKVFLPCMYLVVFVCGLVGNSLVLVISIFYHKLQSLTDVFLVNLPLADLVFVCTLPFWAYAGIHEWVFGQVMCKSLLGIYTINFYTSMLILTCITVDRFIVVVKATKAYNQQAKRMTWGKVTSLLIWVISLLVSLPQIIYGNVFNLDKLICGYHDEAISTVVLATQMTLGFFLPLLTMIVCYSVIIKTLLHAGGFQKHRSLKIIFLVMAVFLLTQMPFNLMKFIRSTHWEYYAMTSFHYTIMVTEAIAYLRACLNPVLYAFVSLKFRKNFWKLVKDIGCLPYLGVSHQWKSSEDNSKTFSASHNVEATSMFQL
Chain of Beta-galactosidase (Escherichia coli) (Q8VNN2 whole entry, looked up): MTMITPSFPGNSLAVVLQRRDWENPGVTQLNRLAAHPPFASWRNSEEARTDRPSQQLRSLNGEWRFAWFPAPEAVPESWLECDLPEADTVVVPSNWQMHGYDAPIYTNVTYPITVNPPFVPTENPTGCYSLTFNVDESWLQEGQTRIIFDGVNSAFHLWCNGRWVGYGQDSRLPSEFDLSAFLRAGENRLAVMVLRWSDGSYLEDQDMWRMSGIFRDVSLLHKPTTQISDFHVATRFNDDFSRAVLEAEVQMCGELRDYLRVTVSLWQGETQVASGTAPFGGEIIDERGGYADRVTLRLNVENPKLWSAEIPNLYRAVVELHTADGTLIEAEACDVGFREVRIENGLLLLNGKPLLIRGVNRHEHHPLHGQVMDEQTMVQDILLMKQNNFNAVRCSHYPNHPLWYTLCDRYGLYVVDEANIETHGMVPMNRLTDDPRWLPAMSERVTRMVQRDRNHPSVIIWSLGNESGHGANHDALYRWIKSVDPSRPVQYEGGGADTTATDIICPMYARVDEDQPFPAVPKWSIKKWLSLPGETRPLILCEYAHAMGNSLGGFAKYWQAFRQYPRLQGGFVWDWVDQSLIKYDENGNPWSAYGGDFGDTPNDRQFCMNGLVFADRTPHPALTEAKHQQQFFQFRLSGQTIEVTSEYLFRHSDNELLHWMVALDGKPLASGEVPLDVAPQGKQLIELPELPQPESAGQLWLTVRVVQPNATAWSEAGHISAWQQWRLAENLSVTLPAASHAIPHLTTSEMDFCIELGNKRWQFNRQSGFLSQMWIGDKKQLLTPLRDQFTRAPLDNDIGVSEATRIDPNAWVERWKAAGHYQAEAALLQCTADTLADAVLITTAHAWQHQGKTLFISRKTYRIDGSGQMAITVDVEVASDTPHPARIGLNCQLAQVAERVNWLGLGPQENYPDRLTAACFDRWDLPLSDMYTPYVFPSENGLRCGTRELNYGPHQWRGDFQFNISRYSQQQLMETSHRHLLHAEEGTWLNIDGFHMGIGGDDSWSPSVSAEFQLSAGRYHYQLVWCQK

| Structure (SMILES) | IC50 ([1]; dose range 1) [µM] | IC50 [1, 5] [µM] | IC50 ([1]; run 2, dose range 1) [µM] | IC50 ([1]; run 3, dose range 1) [µM] | IC50 ([2]; dose range 1) | IC50 [2, 5] [µM] | IC50 ([3]; CCR6, dose range 1) [µM] | IC50 [3, 6] [µM] | IC50 ([3]; CCR6, run 2, dose range 1) [µM] | IC50 ([4]; CXCR6, dose range 1) | IC50 [4, 7] [µM] | IC50 ([4]; CXCR6, run 1, dose range 2) [µM] | IC50 ([4]; CXCR6, run 2, dose range 1) [µM] | IC50 ([4]; CXCR6, run 2, dose range 2) [µM] | inhibition [4] [%] |
| --- | --- | --- | --- | --- | --- | --- | --- | --- | --- | --- | --- | --- | --- | --- | --- |
| CCCOc1cccc(-c2cc(C(=O)N/N=C/c3ccccn3)c3ccccc3n2)c1 | 5.48 | 7.37 | 9.25 | > 80 | > 80 µM (inactive) | > 80 | 2.7 | 3.67 | 4.63 | 9.05 µM | 8.66 | 4.31 | 14.5 | 6.79 |  |
| O=C1c2ccccc2C(=O)N1OS(=O)(=O)c1ccc(F)cc1 | 20 | 22 | 26.8 | 19.4 | > 80 µM (inactive) | > 80 | 17.7 | 34.6 | 51.5 | > 80 µM (inactive) | > 80 |  | > 80 |  | 69.8 |
| Cc1c(Nc2cc(Cl)c3nonc3c2[N+](=O)[O-])c(=O)n(-c2ccccc2)n1C | 4.55 | 4.26 | 4.09 | 4.16 | > 80 µM (inactive) | > 80 | 3.16 | 3.35 | 3.55 | 3.95 µM | 3.92 | 3.59 | 4.6 | 3.57 |  |
| O=C(Nc1nc(-c2ccccn2)cs1)Nc1ccc(F)cc1F | 8.6 | 9.05 | 9.65 | 8.89 | > 80 µM (inactive) | > 80 | 8.74 | 10.1 | 11.5 | 11.4 µM | 8.93 | 5.96 | 11.5 | 6.87 |  |
| Cc1ccc2c(C)ccc(O)c2n1 | 5.26 | 5.92 | 6.22 | 6.29 | > 80 µM (inactive) | > 80 | 4.94 | 5.41 | 5.87 | 4.91 µM | 5.07 | 4.36 | 5.82 | 5.2 |  |
| COc1ccccc1-c1cc(C(F)(F)F)nc(S(=O)(=O)CCCC(=O)NCc2ccc(F)cc2)n1 |  | > 80 | > 80 | > 80 | > 80 µM (inactive) | > 80 |  | > 80 | > 80 | > 80 µM (inactive) | > 80 |  | > 80 |  | -37.9 |

The remaining compounds from weak to strong by IC50 [1, 5], led by results:

| IC50 ([1]; dose range 1) [µM] | IC50 [1, 5] [µM] | IC50 ([1]; run 2, dose range 1) [µM] | IC50 ([1]; run 3, dose range 1) [µM] | IC50 ([2]; dose range 1) | IC50 [2, 5] [µM] | IC50 ([3]; CCR6, dose range 1) [µM] | IC50 [3, 6] [µM] | IC50 ([3]; CCR6, run 2, dose range 1) [µM] | IC50 ([4]; CXCR6, dose range 1) | IC50 [4, 7] [µM] | IC50 ([4]; CXCR6, run 1, dose range 2) [µM] | IC50 ([4]; CXCR6, run 2, dose range 1) [µM] | IC50 ([4]; CXCR6, run 2, dose range 2) [µM] | inhibition [4] [%] | Structure (SMILES) |
| --- | --- | --- | --- | --- | --- | --- | --- | --- | --- | --- | --- | --- | --- | --- | --- |
| 10.7 | 22.5 | 7.69 | 49 | > 80 µM (inactive) | > 80 | 5.44 | 5.05 | 4.67 | 6.13 µM | 6.54 | 6.75 | 6.11 | 7.15 |  | COc1ccc(NC(=O)/C(Cl)=C(/Cl)S(=O)Cc2ccccc2)cn1 (stereo unspecified) |
| 9.62 | 21.3 | 8.73 | 45.6 | > 80 µM (inactive) | > 80 | 4.15 | 4.67 | 5.2 | 7.07 µM | 7.02 | 8.75 | 5.41 | 6.85 |  | C=C1C(=O)[C@]23C[C@H]1CCC2[C@@]1(C)C(C[C@@H]3O)[C@](C)(C(=O)OC)CC[C@@H]1OC(C)=O (stereo partly specified) |
| 18 | 19.1 | 17 | 22.2 | > 80 µM (inactive) | > 80 | 12.2 | 13.3 | 14.3 | inactive | 13.8 |  | 11.3 |  | 113 | O=[N+]([O-])c1c(Nc2cccc(O)c2)cc(Cl)c2nonc12 |
